Test results published in patent US10167262B2, “Herbicidal substituted 3-arylpyrazoles” (FMC CORPORATION, priority 2014, dated 2019).

Columns and labels:
Type in all cases: in vivo
[1] = system: barnyardgrass (Echinochloa crus-galli); assay: Test A pre-/postemergence greenhouse herbicide test, visual injury rating 0-100; conditions: 1000 g ai/ha
Method in brief: (§1)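 Scale 0–100 (none to complete control), visual, versus untreated controls after approx. 10 greenhouse days. Pre: directed soil spray at planting. Post: 2–10 cm, one- to two-leaf plants. Non-phytotoxic solvent plus surfactant vehicle.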

corn (Zea mays) = assay: as above; conditions: 1000 g ai/ha
Method in brief: as §1

[2] = system: giant foxtail (Setaria faberii); assay: as above; conditions: 1000 g ai/ha
Method in brief: as §1

[3] = system: large (Lg) crabgrass (Digitaria sanguinalis); assay: as above; conditions: 1000 g ai/ha
Method in brief: as §1

[4] = system: morningglory (Ipomoea spp.); assay: as above; conditions: 1000 g ai/ha
Method in brief: as §1

[5] = system: pigweed (Amaranthus retroflexus); assay: as above; conditions: 1000 g ai/ha
Method in brief: as §1

[6] = system: velvetleaf (Abutilon theophrasti); assay: as above; conditions: 1000 g ai/ha
Method in brief: as §1

[7] = system: wheat (Triticum aestivum); assay: as above; conditions: 1000 g ai/ha
Method in brief: as §1

[8] = system: blackgrass (Alopecurus myosuroides); assay: Test C pre-/postemergence greenhouse test, plant response rating 0-100; conditions: Postemergence
Method in brief: (§2)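 Visual rating vs controls after 13–15 d greenhouse; 0 = no effect, 100 = complete control. Pre: seeds in loam/sand, treated at planting. Post: seedlings 2–18 cm (1–4 leaf) in peat-based mix. Compounds in surfactant-containing non-phytotoxic solvent.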

[9] = system: ragweed (common ragweed, Ambrosia elatior); assay: as above; conditions: Postemergence
Method in brief: as §2

[10] = system: chickweed (common chickweed, Stellaria media); assay: Test C postemergence greenhouse test, plant response rating 0-100
Method in brief: (§3)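 Formulated compounds applied postemergence; plants 1- to 4-leaf stage. Evaluated visually vs. untreated controls after roughly two weeks (13–15 d) under greenhouse conditions; 100 denotes complete control.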

kochia (Kochia scoparia) = assay: as above
Method in brief: as §3

wild oat (Avena fatua) = assay: as above
Method in brief: as §3

Fc1ccccc1NN=C(c1ccccc1)c1c[nH]nc1-c1cc(Cl)cc(Cl)c1 [Compound 57]
Plant response rating (0 to 100 scale), Barnyardgrass ([1]; Postemergence): 0
Plant response rating (0 to 100 scale), Barnyardgrass ([1]; Preemergence): 0
Plant response rating (0 to 100 scale), Corn (corn (Zea mays); Postemergence): 0
Plant response rating (0 to 100 scale), Corn (corn (Zea mays); Preemergence): 0
Plant response rating (0 to 100 scale), Foxtail, Giant ([2]; Postemergence): 0
Plant response rating (0 to 100 scale), Foxtail, Giant ([2]; Preemergence): 0
Plant response rating (0 to 100 scale), Crabgrass, Large ([3]; Postemergence): 0
Plant response rating (0 to 100 scale), Crabgrass, Large ([3]; Preemergence): 0
Plant response rating (0 to 100 scale), Morningglory ([4]; Postemergence): 0
Plant response rating (0 to 100 scale), Morningglory ([4]; Preemergence): 0
Plant response rating (0 to 100 scale), Pigweed ([5]; Postemergence): 90
Plant response rating (0 to 100 scale), Pigweed ([5]; Preemergence): 90
Plant response rating (0 to 100 scale), Velvetleaf ([6]; Postemergence): 100
Plant response rating (0 to 100 scale), Velvetleaf ([6]; Preemergence): 80
Plant response rating (0 to 100 scale), Wheat ([7]; Postemergence): 0
Plant response rating (0 to 100 scale), Wheat ([7]; Preemergence): 0
Plant response rating (0 to 100), Blackgrass ([8]; 31 g ai/ha): 0
Plant response rating (0 to 100), Blackgrass ([8]; 62 g ai/ha): 0
Plant response rating (0 to 100), Blackgrass ([8]; 125 g ai/ha): 0
Plant response rating, Blackgrass ([8]; 250 g ai/ha, scale 0 to 100): 0
Plant response rating (0 to 100), Ragweed ([9]; 62 g ai/ha): 15
Plant response rating (0 to 100), Ragweed ([9]; 125 g ai/ha): 65
Plant response rating, Ragweed ([9]; 250 g ai/ha, scale 0 to 100): 70
Plant response rating (0 to 100), Chickweed ([10]; 31 g ai/ha): 60
Plant response rating (0 to 100), Chickweed ([10]; 62 g ai/ha): 100
Plant response rating (0 to 100), Chickweed ([10]; 125 g ai/ha): 100
Plant response rating, Chickweed ([10]; 250 g ai/ha, scale 0 to 100): 100
Plant response rating (0 to 100), Kochia (kochia (Kochia scoparia); 62 g ai/ha): 65
Plant response rating (0 to 100), Kochia (kochia (Kochia scoparia); 125 g ai/ha): 65
Plant response rating, Kochia (kochia (Kochia scoparia); 250 g ai/ha, scale 0 to 100): 80
Plant response rating (0 to 100), Oat, Wild (wild oat (Avena fatua); 62 g ai/ha): 0
Plant response rating (0 to 100), Oat, Wild (wild oat (Avena fatua); 125 g ai/ha): 0
Plant response rating, Oat, Wild (wild oat (Avena fatua); 250 g ai/ha, scale 0 to 100): 0
